max. inhibition, IC50 and Inhibition of proliferation data for 1 compound are collected here from patent US8435576B2, “Use of cocoa polyphenols for treating a prostate hyperplasia, a specific cocoa extract and applications” (Barry Callebaut AG, priority 2005, dated 2013).

The structures appear in SMILES notation. Marks after values point to notes of the source that are not given here.

One experiment deals with RWEP-1 cells. Briefly: Cell growth and viability (neutral red / sulforhodamine B) and morphology. It is filed as cell-based, human. How it is done: Each product (1 to 5) was applied for 1 to 72 hours, at various concentrations. The number of cells was compared with a control, namely cells cultured in the absence of the test compound.
The RPMI-1640 medium, the fetal calf serum and the L-glutamine were supplied by Gibco BRL (Cergy Pontoise, France). The cell cultures were replaced every 5 days to ensure exponential growth. The normal human prostate cells RWEP-1 were supplied by the American Type Culture Collection (ATCC, Rockville, Md.). The cells were maintained in the form of a monolayer culture according to the usual techniques, in […] flasks, at 37° C., in an atmosphere containing 5% CO2 and at 95% humidity, in a medium free of serum and of keratinocytes, supplemented with 2.5 μg of recombinant human EGF and 25 mg of calf pituitary extract. The medium was supplied by Gibco BRL (Cergy Pontoise, France).
Five products were tested for this study and were stored protected from light, at +4° C. The β-sitosterol (product 1), obtained from Sigma Chemicals, was first dissolved in absolute ethanol, up to a final concentration of 24.1 mM. Product 2, supplied by Barry Callebaut, France, is a defatted cocoa extract containing 35.5% polyphenols and 0.081% β-sitosterol. Product 3 was reconstituted from products 1 and 2 and contained 35.5% polyphenols and 0.72% β-sitosterol. Products 4 and 5 were manufactured by Barry Callebaut, France. The composition of product 4 is unknown, and contains no β-sitosterol. Product 5 contains 35.27% polyphenols and 0.72% β-sitosterol. Products 2, 3, 4 and 5 were first dissolved in whole medium. As regards products 2, 4 and 5, the total polyphenols of the cocoa extracts originate from different countries.
Just before use, the final concentrations of products (table 1) used are prepared for the various experiments by means of stock solutions, by diluting the stock solution in whole medium. 64.2 μM of β-sitosterol is the maximum dose used in this solubility range and in the physiological range (4 to 70 μM). The absolute ethanol is at a constant concentration of 0.26% in the solvent-based control, in the negative control and in the 8 test concentrations. The ratios of the β-sitosterol and of the polyphenols for products 2, 3 and 5 are as follows: • Product 2:2:1000 • Product 3:2:100 • Product 5:2:100
The cells were inoculated on 96-well plates at an initial density of 15 000 cells/well for DU145, at an initial density of 30 000 cells/well for 22Rv1 and at an initial density of 25 000 cells/well for RWEP-1, with 200 μL of medium per well. The cell density was optimized as a function of the time required to double the population of cells, in order to obtain a significant measurement of the Optical Density (OD) and to be able to compare the various cells lines. After 24 hours, in order to ensure uniform fixing of the cells from the start of the experiments, the products were added to the cell cultures at various concentrations and at various times. After incubation with the products, the growth and viability of the cells was measured using neutral red (NR) and sulforhodamine B (SRB) combined (In Cytotox, Vandoeuvre, France). The absorption of the vital stain NR was used by the lysosomes/endosomes and by the vacuoles of the live cells as a quantitative indication of the number and viability of the cells after treatment with a chemical test. The anionic stain SRB made it possible to quantify the viable cells via measurement of the protein content of the cells.
The cytotoxicity was evaluated 1, 3, 6, 24, 48 and 72 hours after incubating the 22Rv1, RWEP-1 and DU145 cells with the products. The cells were washed with 200 μl of washing solution in order to remove the culture medium supplemented with the products. 200 μL of neutral red base medium was added and incubated with the cells at 37° C. for 3 hours. The neutral red base medium was then removed and the cells were washed twice with phosphate-buffered physiological saline (PBS). […]

Experiment [1] concerns human prostate carcinoma (22Rv1). The experiment is described as follows: Cell proliferation test, neutral red release method, media M1-M3. It is filed as cell-based. The conditions noted are these: 22Rv1, media M1, M2 or M3, 24 hours. How it is done:
(§1) • Healthy human prostate epithelial cells (RWEP-1, ATCC No. CRL-11609) • Human prostate carcinoma (22Rv1 ATCC No. CRL-2505) Culture: • 37° C., 5% CO2, 95% humidity
(§2) • Keratinocyte-serum free medium (KSFM) (Invitrogen, 17005-042) • Epidermal Growth Factor, 5 ng/ml (Invitrogen, 10450-013) • Bovine pituitary extract, 0.05 mg/ml (Invitrogen, 13028-014) • Penicillin 50 IU/ml-streptomycin 50 μg/ml 10 (v/v, Invitrogen 15070-063) Medium M2=Medium recommended for tumor cells (22Rv1): • RPMI 1640 medium (Invitrogen, 31870-025) • Decomplemented fetal calf serum, 10% (v/v Invitrogen 10270-098) • L-Glutamine, 1% (v/v Invitrogen 25030-024) • Penicillin 50 IU/ml-streptomycin 50 μg/ml 1 (v/v, • Invitrogen 15070-063) Medium M3=Mixed medium: • Whole keratinocyte-serum free medium, 50% (v/v) • Whole RPMI 1640 medium, 50% (v/v) […]
(§3) After 24 hours of growth, the healthy and tumoral cell lines were incubated in the presence of β-sitosterol (reference product) at 8 concentrations (see paragraph b) above) or of CPE at 8 concentrations (see paragraph b) above). […] The amount of stain incorporated into the cells is measured by spectro-photometric reading at 540 nm and is directly pro-portional to the number of live cells. The results were expressed as a percentage of inhibition relative to the untreated control.

Experiment [2] relates to healthy human prostate epithelial cells (RWEP-1). The experiment is described as above. It is filed as cell-based. Conditions: RWEP-1, media M1, M2 or M3, 24 hours. How it is done:
as §1, §2, §3

Turning to `CC[C@H](CC[C@@H](C)[C@H]1CC[C@H]2[C@@H]3CC=C4C[C@@H](O)CC[C@]4(C)[C@H]3CC[C@]12C)C(C)C` [β-sitosterol], the max. inhibition in the experiment with RWEP-1 cells (24 h, RWEP1, NR) is recorded as 15%^b; in the experiment with RWEP-1 cells (24 h, RWEP1, SRB), 9%; in the experiment with RWEP-1 cells (48 h, RWEP1, NR), 29%; in the experiment with RWEP-1 cells (48 h, RWEP1, SRB) it was 48%; in the experiment with RWEP-1 cells (72 h, RWEP1, NR), 11%; in the experiment with RWEP-1 cells (72 h, RWEP1, SRB) it was 26%. Also, the IC50 entry in the experiment with RWEP-1 cells (RWEP-1, between 1 and 72 hours of treatment) is recorded as “never reached”. For the same compound, the Inhibition of proliferation result in experiment [1] and in experiment [2] was “weak inhibition of proliferation” throughout.
